Data as given in patent US11160788B2, “Caspase-1 inhibition and uses thereof for prevention and treatment of neurological conditions” (priority 2016, dated 2021).
pIC50: −log10 of the molar value. Entries after “also recorded” stand apart in the source; their conditions may differ.

Tests used:
[1] = molecular target: T1, recombinant human Casp1 (Homo sapiens, UniProt P29466); test: Caspase inhibition IC50, recombinant human Casp1; assay type: biochemical; conditions: read-out: IC50 against human Casp1
T1 sequence (P29466 120-297 limits assumed): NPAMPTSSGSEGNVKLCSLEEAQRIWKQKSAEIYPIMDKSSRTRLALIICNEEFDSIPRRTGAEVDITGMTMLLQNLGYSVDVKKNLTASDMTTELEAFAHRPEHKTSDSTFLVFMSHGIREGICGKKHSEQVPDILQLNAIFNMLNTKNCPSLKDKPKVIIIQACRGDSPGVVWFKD
T1 sequence (P29466 317-404 limits assumed): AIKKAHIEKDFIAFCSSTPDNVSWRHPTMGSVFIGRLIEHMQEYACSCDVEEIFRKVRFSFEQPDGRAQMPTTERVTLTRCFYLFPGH
Procedure: (§1) FIG. 14: Selectivity and blood brain permeability of VX-765 and VRT-043198. (a-b) IC50 of VX-765 (a) and VRT-043198 (b) against human Casp1-10. (c-d) IC50 of VX-765 (c) and VRT-043198 (d) against mouse Casp1 and Casp11. (e) Blood brain barrier permeability and presence of VX-765 and VRT-043198 in 3 wild type and 4 J20 mice brain cortex and hippocampus and in plasma. Ratios of brain levels to plasma levels are calculated.

[2] = molecular target: T2, mouse Casp11 (Mus musculus, UniProt P70343); test: Selectivity against mouse Casp11; assay type: biochemical; conditions: recombinant caspases
T2 sequence (P70343 81-266 limits assumed): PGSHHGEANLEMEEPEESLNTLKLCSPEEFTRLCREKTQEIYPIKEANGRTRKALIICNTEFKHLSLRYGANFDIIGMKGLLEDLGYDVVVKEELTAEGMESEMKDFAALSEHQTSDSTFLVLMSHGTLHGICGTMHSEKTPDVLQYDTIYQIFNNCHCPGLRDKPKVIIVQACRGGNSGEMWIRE
T2 sequence (P70343 286-373 limits assumed): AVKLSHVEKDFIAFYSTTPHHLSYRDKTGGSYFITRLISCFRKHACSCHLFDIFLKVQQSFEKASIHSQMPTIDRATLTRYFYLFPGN
Procedure: as §1

[3] = system: J20 mice; test: APP, Casp1, Casp6, IDE and neprilysin expression, treated symptomatic J20 mice; assay type: in vivo, mouse; conditions: RT-PCR, J20 brains, preliminary
Text: FIG. 5: Western blot against the C-terminus (C11) and Aβ (6E10) regions of APP in TREATMENT mice groups before washout.
FIG. 11: VX-765 prevents the progression of Aβ in J20 mice. (a) Aβ immunohistographs of the stratum lacunosum molecular layer of the hippocampus and S1 cortex of pre-treated 5-month old J20 (baseline) and 8-month old vehicle- or VX-765-treated WT or J20 mice with anti-F2576 antiserum (Scale bar=50 μm). (b) Quantitative analysis comparing Aβ immunostaining density between J20+Vehicle (n=5) and J20+VX-765 (n=4) mice in the hippocampus from the pyramidal cell layer to the stratum lacunosum molecular layer (p=0.0029) and cortex (p=0.0314, unpaired t test). (c) Quantitative analysis comparing RIPA-soluble Aβ42 over total Aβ (Aβ38+Aβ40+Aβ42) levels in pre-treated 5-month old J20, 8-month old vehicle- or VX-765 treated J20 mice hippocampus (F(2,9)=6.614, p=0.0171, ANOVA, Tukey's post-hoc, * p<0.05). No ELISA signal was obtained from WT mice brains. (d) RIPA-soluble total Aβ measured by ELISA in pg/mg brain tissue. (e,f) Formic acid soluble Aβ42 over total Aβ (Aβ38+Aβ40+Aβ42) (e) and total Aβ (f) levels measured by ELISA in pg/mg brain tissue. Student t-test used to assess difference between J20+vehicle and J20+VX-765. (g,h,i) RIPA-soluble and (j,k,l) formic acid soluble Aβ38, Aβ40, and Aβ42 measured by ELISA in pg/mg brain tissue. […]

[4] = system: J20 mice; test: Open field, preventive treatment of pre-symptomatic J20 mice; assay type: in vivo, mouse
Procedure: FIG. 21: Open-field assessment to assess hyperactivity in J20 mice. Mice were treated with vehicle (WT and J20) or 50 mg/kg VX-765 (J20) at 2 months of age for 1 month (3 injections per week×4 weeks=12 injections). Hyperactivity was assessed by measuring the distance travelled (a), the number of quadrant entries (b), and the % time moving (c), while anxiety was assessed by the % time spent in periphery (d).
Studies are done on 8 (pre-symptomatic) week old J20 and littermate WT controls injected with 50 mg/Kg VX-765 or vehicle. The 8 week old mice are injected for 4 weeks (3 injections per week) and monitored for memory deficits at 16 weeks of age and every 4 weeks thereafter until the mice reach 8 months of age. VX-765 delays the onset of cognitive deficits by at least 5 months in the J20 mouse.
We directly tested whether pre-symptomatic inhibition of inflammation in a mouse genetic model of Alzheimer disease can stem the progression of memory and behavioral deficits, and Alzheimer disease-like pathology. The J20 amyloid precursor protein Swedish/Indiana mutant mouse was treated at 2 months of age for a one month period with 50 mg/Kg Caspase-1 inhibitor VX-765 (FIG. 22a).

## CCO[C@@H]1OC(=O)C[C@@H]1NC(=O)[C@@H]1CCCN1C(=O)[C@@H](NC(=O)c1ccc(N)c(Cl)c1)C(C)(C)C [VX-765, (S)-1-((S)-2-{[1-(4-amino-3-chloro-phenyl)-methanoyl]-amino}-3,3-dimethyl-butanoyl)-pyrrolidine-2-carboxylic acid ((2R,3S)-2-ethoxy-5-oxo-tetrahydro-furan-3-yl)-amide]
[1]
  pIC50: 8.43
[2]
  inhibition of mouse Casp1 compared to mouse Casp11: strongly inhibited compared to inflammatory mouse Casp11
[3]
  Casp1 and Casp6 mRNA: reduction
[4]; 4 months of age (4 week washout)
  open field hyperactivity (distance travelled, quadrant entries): normal behavior at 4 months of age; also recorded: behave as the vehicle-treated WT mice
[4]; 5 months of age (8 week washout) and thereafter
  open field hyperactivity: hyperactivity returned by 5 months of age; also recorded: lost at the 8 week washout assessment and thereafter
[4]; 8 week to 20 week washout
  % time of movement: did not alter
